Test results published in patent US10662225B2, “Backbone cyclized inhibitory peptides of myeloid differentiation factor 88 (MyD88)” (Yissum Research Development Company of the Hebrew …, priority 2016, dated 2020).
Numbered stars: 1 amine (or outer) side, 2 acyl side, 3 side chain; on linkers, the order of the positions; unused ones are H or OH. Bridge positions count the residues as written; N and C are the ends. Square brackets hold non-standard residues; d marks the D form. Peptide text beside a SMILES is read from it. CO = O=C([*:1])[*:2]; Nlys = NCCCCNCC(=O)O

Experiments:
MyD88 dimerization = target: T1, MyD88 dimerization (Homo sapiens, UniProt Q99836); experiment: Co-immunoprecipitation of Flag-MyD88 with HA-MyD88 in HEK293 cells; assay type: cell-based; settings: HEK293, IL-1 stimulation; 4×4MyDI at 20, 2, 0.2 μM; Myr-4×4MyDI at 0.2 or 2000 nM
T1 construct: constructs encoding HA-tagged full length MyD88 and Flag-tagged full length MyD88; expressed in transfected cells; host or cells: HEK293
Method: FIG. 10. 4×4MyDI blocks MyD88 dimerization. HEK293 cells were transfected with two plasmids, one encoding HA-MyD88 and the other encoding FLAG-MyD88 and after 48 hours the cells were either untreated (cont) or treated with 20 μM of the linear MyDI peptide, the scrambled version of the linear MyDI peptide (SEQ ID NO: 5,), or the 4×4MyDI at 20, 2, or 0.2 μM. After 3 h of treatment, cells were stimulated with recombinant human IL-1 (20 ng/ml) for 30 min and then lysed. Whole cell lysates (WCL) were immunoprecipitated with anti-HA beads (Thermo-Scientific) for 30 min and proteins were eluted with glycine Ph 2.0, neutralized, and loaded on an acrylamide gel for analysis. Proteins were transferred to nitrocellulose and the amount of Flag-MyD88 that co-precipitated with HA-MyD88 was detected by immunoblotting (IB) with anti-Flag antibody.
FIGS. 14A and 14B. […] Proteins were transferred to nitrocellulose and the amount of FLAG-MyD88 that co-precipitated with HA-MyD88 was detected by immunoblotting (IB) with anti-FLAG antibody. […] Percent inhibition of co-immunoprecipitation was calculated by comparing densitometry of bands in the treated lanes to control. […]
TLR and IL-1 receptor signaling proceeds through a multimeric protein signaling complex (the “Myddosome”) that is initiated by MyD88 homodimerization. […] Immunoprecipitated protein was eluted and analyzed by immunoblot using an antibody to Flag. […]

[1] = Metabolic stability in plasma (quantitative HPLC); assay type: in vitro ADME, human
Method: FIGS. 17A and 17B. 4×4MyDI is metabolically stable in comparison to the linear MyDI peptide. 4×4MyDI vs. linear MyDI heptapeptide were incubated independently in either human plasma […] or human plasma supplemented with Brush Border Membrane Vesicles (BBMV, 18B). At various time points the solution was sampled and the amount of remaining compound was determined by quantitative HPLC.
Peptide backbone cyclization confers metabolic stability on peptides that are inherently susceptible to degradation by proteases. […] The stability of the compounds was then tested in plasma enriched with Brush Border Membrane Vesicles (BBMV). This system models the degradative conditions of the intestine.

T1 sequence (Q99836 whole entry): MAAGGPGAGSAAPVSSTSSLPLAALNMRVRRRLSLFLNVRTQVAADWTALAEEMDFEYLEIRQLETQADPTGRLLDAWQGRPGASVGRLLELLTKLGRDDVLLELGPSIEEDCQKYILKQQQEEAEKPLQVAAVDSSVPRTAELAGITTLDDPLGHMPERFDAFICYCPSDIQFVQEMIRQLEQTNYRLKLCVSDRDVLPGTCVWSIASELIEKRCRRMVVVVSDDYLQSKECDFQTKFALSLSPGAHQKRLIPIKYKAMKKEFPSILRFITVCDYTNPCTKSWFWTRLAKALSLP

CC(C)C[C@@H]1NC(=O)[C@H](C(C)C)NC(=O)[C@H](CC(=O)O)NC(=O)[C@H](CCCNC(=N)N)NC(=O)CN(C(=O)[C@@H](N)Cc2c[nH]c3ccccc23)CCCCNC(=O)NCCCCN(CC(=O)NCC(=O)N[C@H](C(N)=O)[C@@H](C)O)C1=O [4×4MyDI] (H-W[Nlys]RDVL[Nlys]GT-NH2; linker 2-7 via CO; N-terminus assumed)
MyD88 dimerization (Flag-MyD88 co-precipitated with HA-MyD88) (MyD88 dimerization): dramatically reduces the dimerization
metabolised at 4 h ([1]; human, human plasma, over the following two hours (hours 2-4), read-out: decrease of amount in plasma): 20%
stability in plasma ([1]; plasma, 4×4MyDI: first two hours): completely stable
